Here are results for 13 compounds from ChEMBL document CHEMBL1201862, “PubChem BioAssay data set” (2004).

Some test systems named below: OVCAR-3; SK-MEL-28; MDA-MB-435; UO-31; PC-3; HL-60; T47D; SK-OV-3; BT-549; COLO 205; ACHN; MDA-N; Hs-578T; SN12C; RXF 393; SR; M19-MEL; DMS-273; DMS-114.
Holding throughout (assay): NCI tumour cell line growth inhibition, 48 h

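Results reflect a 48-hour exposure of cells in 96-well plates to compound at five concentrations. GI50 = concentration required for 50% inhibition of growth.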 The source made the active and inactive calls. Rule as the data show it: active = GI50 up to about 1.1 µM and inactive = higher.

Regarding `COC(=O)c1cc2c(n1S(=O)(=O)c1ccc(C)cc1)C(=O)C(=O)c1[nH]cc(C(=O)OCc3ccccc3)c1-2`, the GI50 was < 0.0141 µM (active) in the experiment with OVCAR-3; 0.107 µM (active) in the experiment with SK-MEL-28; < 0.015 µM (active) in the experiment with MDA-MB-435; 0.211 µM (active) with UO-31; 0.264 µM (active) in the experiment on PC-3; 0.0289 µM (active) in the experiment with HL-60. Also, the GI50 with T47D is 0.216 µM (active); in the experiment on SK-OV-3, 0.871 µM (active); in the experiment on BT-549, 0.183 µM (active); with COLO 205, 0.191 µM (active); with ACHN, 0.233 µM (active); in the experiment with MDA-N, < 0.01 µM (active). The GI50 in the experiment with Hs-578T is 0.43 µM (active); in the experiment on SN12C, 0.08 µM (active); in the experiment with RXF 393 it was 0.0973 µM (active); with SR it was 0.0906 µM (active).
For the compound `Cn1c(-c2cccs2)cc(-c2ccccc2)c1-c1cccs1`, the GI50 was 20.4 µM (inactive) in the experiment with OVCAR-3; > 100 µM (inactive) with SK-MEL-28; > 100 µM (inactive) with MDA-MB-435; > 100 µM (inactive) with UO-31; 58.5 µM (inactive) in the experiment with PC-3; 68.7 µM (inactive) in the experiment on HL-60. Also, the GI50 was > 100 µM (inactive) with T47D; 36.1 µM (inactive) in the experiment with SK-OV-3; > 100 µM (inactive) in the experiment with BT-549; 19.1 µM (inactive) in the experiment with COLO 205; 39.9 µM (inactive) in the experiment with ACHN; > 100 µM (inactive) with MDA-N. Besides, the GI50 is > 100 µM (inactive) with Hs-578T, > 100 µM (inactive) in the experiment with SN12C, > 100 µM (inactive) with RXF 393 and 18.2 µM (inactive) in the experiment with SR.
For the compound `COC(=O)C12C3C=CC(O3)C1C1C=CC2O1` (centres undefined), the GI50 with OVCAR-3, in the experiment on SK-MEL-28, in the experiment with UO-31, with HL-60, in the experiment on SK-OV-3 and with COLO 205 was > 100 µM (inactive) throughout. In addition, the GI50 with M19-MEL, with ACHN, with SN12C, with RXF 393, in the experiment with SR and in the experiment on DMS-273 was > 100 µM (inactive) each time.
With `COC(=O)c1ccccc1C1CN=NC12Cc1c(ccc3c1CCC3)C2=O` (centres undefined), the GI50 is 96.2 µM (inactive) in the experiment with OVCAR-3; 95.1 µM (inactive) in the experiment with SK-MEL-28; 23.9 µM (inactive) in the experiment on MDA-MB-435; 80.5 µM (inactive) in the experiment with UO-31; 43.8 µM (inactive) in the experiment with PC-3; 23.4 µM (inactive) in the experiment on HL-60. Moreover, the GI50 in the experiment with T47D was 54 µM (inactive); in the experiment on SK-OV-3, > 100 µM (inactive); in the experiment with BT-549 it was 92.7 µM (inactive); in the experiment with COLO 205, 47.8 µM (inactive); in the experiment on ACHN it was 72.4 µM (inactive); in the experiment with MDA-N it was 20.1 µM (inactive). Moreover, the GI50 in the experiment with Hs-578T is 71.8 µM (inactive); in the experiment with SN12C it was 95.3 µM (inactive); in the experiment with RXF 393, 48.6 µM (inactive); with SR it was 46.2 µM (inactive).
For `CN1C2CCC1CC(CC(=O)NC(c1ccc(F)cc1)c1ccc(F)cc1)C2` (centres undefined), the GI50 with OVCAR-3 is > 100 µM (inactive); in the experiment with SK-MEL-28 it was 22.5 µM (inactive); in the experiment on MDA-MB-435 it was 35.6 µM (inactive); in the experiment with UO-31, 56.1 µM (inactive); in the experiment on PC-3, > 100 µM (inactive); in the experiment on HL-60, 0.242 µM (active). The GI50 with T47D is > 100 µM (inactive); in the experiment on SK-OV-3, > 100 µM (inactive); with BT-549, > 100 µM (inactive); in the experiment on COLO 205, 21.5 µM (inactive); in the experiment with ACHN it was > 100 µM (inactive); in the experiment on MDA-N, 41.9 µM (inactive). The GI50 in the experiment on Hs-578T was > 100 µM (inactive); in the experiment with SN12C, > 100 µM (inactive); in the experiment on RXF 393 it was > 100 µM (inactive); in the experiment with SR it was 30.2 µM (inactive).
Regarding `COc1cc2cc(C(=O)N3CC(CCl)c4ccc([N+](C)(C)Cc5ccccc5[N+](=O)[O-])cc43)[nH]c2c(OC)c1OC` (centres undefined), the GI50 was 2.94 µM (inactive) in the experiment with OVCAR-3; 2.46 µM (inactive) in the experiment on SK-MEL-28; 1.82 µM (inactive) with MDA-MB-435; 1.33 µM (inactive) in the experiment with UO-31; 1.68 µM (inactive) with PC-3; 2.77 µM (inactive) with HL-60. The GI50 with T47D was 2.31 µM (inactive); in the experiment with SK-OV-3 it was 4.51 µM (inactive); in the experiment on BT-549, 1.95 µM (inactive); with COLO 205, 2 µM (inactive); in the experiment on ACHN, 0.348 µM (active); with MDA-N, 2.26 µM (inactive). In addition, the GI50 is 2.4 µM (inactive) with Hs-578T, 4.05 µM (inactive) in the experiment with SN12C, 0.652 µM (active) in the experiment with RXF 393 and 0.213 µM (active) with SR.
As to `COc1ccc2nc3ccc(OC)cc3c([S+]([O-])Cc3ccc([N+](=O)[O-])cc3)c2c1` (centres undefined), the GI50 with OVCAR-3 is 5.47 µM (inactive); in the experiment on SK-MEL-28 it was 5.97 µM (inactive); in the experiment on MDA-MB-435 it was 8.07 µM (inactive); with UO-31, 6.44 µM (inactive); in the experiment with PC-3 it was 14.5 µM (inactive); with HL-60 it was 1.75 µM (inactive). In addition, the GI50 in the experiment with T47D is 1.95 µM (inactive); in the experiment on SK-OV-3, 21.1 µM (inactive); in the experiment on BT-549 it was 18.7 µM (inactive); with COLO 205, 2.92 µM (inactive); with ACHN it was 5.52 µM (inactive); in the experiment with MDA-N it was 14.2 µM (inactive). The GI50 in the experiment with Hs-578T is 8.87 µM (inactive); with SN12C, 3.65 µM (inactive); in the experiment on RXF 393, 5.04 µM (inactive); in the experiment with SR, 8.18 µM (inactive).
Turning to `CC1CCCC(C(O)CC2CC(=O)NC(=O)C2)C1O` (centres undefined), the GI50 with OVCAR-3, with SK-MEL-28, in the experiment with MDA-MB-435, in the experiment on UO-31, with PC-3 and in the experiment on HL-60 was > 100 µM (inactive) each time. Besides, the GI50 in the experiment with T47D, with SK-OV-3, in the experiment on BT-549, with COLO 205, in the experiment on ACHN and in the experiment on MDA-N was > 100 µM (inactive) in each case. The GI50 in the experiment on Hs-578T, in the experiment on SN12C, in the experiment on RXF 393 and with SR was > 100 µM (inactive) throughout.
With `CC(C)(C)OC(=O)NCCCCC(NC(=O)OCc1ccccc1)C(N)=O` (centres undefined), the GI50 in the experiment on OVCAR-3, in the experiment on SK-MEL-28, with MDA-MB-435, with UO-31, with PC-3 and with HL-60 was > 100 µM (inactive) in each case. Besides, the GI50 in the experiment on T47D, with SK-OV-3, in the experiment with BT-549, with COLO 205, with ACHN and in the experiment with MDA-N was > 100 µM (inactive) in each case. The GI50 with Hs-578T, in the experiment on SN12C, with RXF 393 and with SR was > 100 µM (inactive) throughout.
With `COc1ccc(/N=N/c2ccc3oc(=O)c(C(=O)Nc4ccc(OC)cc4)cc3c2)cc1`, the GI50 in the experiment with OVCAR-3 is 19.2 µM (inactive); in the experiment on SK-MEL-28, 15.6 µM (inactive); with MDA-MB-435, 16.7 µM (inactive); in the experiment with UO-31, 14 µM (inactive); in the experiment with PC-3, 11 µM (inactive); with HL-60, 5.69 µM (inactive). In addition, the GI50 in the experiment with T47D was 4.23 µM (inactive); in the experiment on SK-OV-3, 19.5 µM (inactive); in the experiment on BT-549 it was 4.93 µM (inactive); with COLO 205 it was 20.8 µM (inactive); in the experiment with ACHN, 18.2 µM (inactive); in the experiment with MDA-N, 25.5 µM (inactive). The GI50 in the experiment on Hs-578T was 20.9 µM (inactive); in the experiment with SN12C, 14 µM (inactive); with RXF 393, 27 µM (inactive); in the experiment on SR, 12 µM (inactive).
Regarding `Sc1nnc(C23CC4CC(CC(C4)C2)C3)n1-c1ccc(Cl)cc1`, the GI50 with OVCAR-3 was 10.8 µM (inactive); in the experiment with SK-MEL-28, 11.9 µM (inactive); in the experiment with MDA-MB-435, 12.9 µM (inactive); with UO-31 it was 13.7 µM (inactive); in the experiment with PC-3 it was 11.2 µM (inactive); in the experiment with HL-60, 2.77 µM (inactive). The GI50 is 17.5 µM (inactive) in the experiment on T47D; 20 µM (inactive) with SK-OV-3; 12.3 µM (inactive) in the experiment on BT-549; 13.2 µM (inactive) with COLO 205; 15.4 µM (inactive) in the experiment on ACHN; 15.6 µM (inactive) with MDA-N. Besides, the GI50 was 22.1 µM (inactive) in the experiment with Hs-578T, 14.1 µM (inactive) in the experiment with SN12C, 14.2 µM (inactive) in the experiment with RXF 393 and 3.07 µM (inactive) in the experiment on SR.
For `C[C@@H](C1CCC2C3C(=CC(=O)[C@@]21C)[C@H](C)[C@]1(CCC(=O)O1)C1OC31)[C@H]1C[C@]2(C)O[C@@](C)(O1)OC2(C)C` (some centres undefined), the GI50 in the experiment with SK-MEL-28, with UO-31, in the experiment with HL-60, in the experiment on DMS-114, in the experiment on SK-OV-3 and in the experiment with COLO 205 was > 100 µM (inactive) throughout. Also, the GI50 with M19-MEL, in the experiment on ACHN, in the experiment with SN12C, in the experiment with RXF 393 and in the experiment with DMS-273 was > 100 µM (inactive) each time.
As for `[O-][n+]1ccc(NO)c2ccccc21`, the GI50 in the experiment on OVCAR-3 was 2.3 µM (inactive); with SK-MEL-28 it was 1.3 µM (inactive); in the experiment with MDA-MB-435, 4.6 µM (inactive); in the experiment on UO-31, 1.75 µM (inactive); in the experiment on PC-3, 1.51 µM (inactive); with HL-60, 0.923 µM (active). Moreover, the GI50 with T47D was 1.67 µM (inactive); in the experiment with SK-OV-3 it was 0.518 µM (active); in the experiment with BT-549 it was 0.689 µM (active); in the experiment on COLO 205, 1.41 µM (inactive); in the experiment with ACHN it was 0.796 µM (active); in the experiment on MDA-N, 4.72 µM (inactive). The GI50 was 2.09 µM (inactive) in the experiment with Hs-578T, 1.38 µM (inactive) in the experiment on SN12C, 0.592 µM (active) in the experiment with RXF 393 and 0.106 µM (active) with SR.
